Source: PubChem BioAssay (NCI)
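Step 1: Grow cells in 96-well plates. Step 2: Expose to compound for 48 hours at 5 concentrations. Step 3: Interpolate endpoints linearly; if unreached, use highest concentration. GI50 = concentration required for 50% inhibition of growth. TGI: concentration producing complete growth inhibition.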

What was measured:
Assay in all cases: inhibition of tumour cell growth, NCI panel, 48 h
[1] = system: HCT-116 colon
[2] = system: UACC-62 melanoma
[3] = system: MDA-MB-435
[4] = system: PC-3 prostate
[5] = system: HCC-2998 colon
[6] = system: OVCAR-8 ovarian
[7] = system: SF-539 CNS
[8] = system: NCI-H460 lung
[9] = system: 786-0 renal
[10] = system: SW-620 colon
[11] = system: KM12 colon
[12] = system: UACC-257 melanoma
[13] = system: CAKI-1 renal
[14] = system: SK-MEL-2 melanoma
[15] = system: HS 578T breast
[16] = system: BT-549 breast
[17] = system: LOX IMVI melanoma
[18] = system: NCI-H522 lung
[19] = system: NCI-H23 lung
[20] = system: NCI-H226 lung
[21] = system: SK-MEL-5 melanoma
[22] = system: UO-31 renal
[23] = system: COLO 205 colon
[24] = system: SK-MEL-28 melanoma
[25] = system: T-47D breast
[26] = system: NCI/ADR-RES ovarian
[27] = system: DU-145 prostate
[28] = system: SR leukemia

C[C@H]1c2cccc(O)c2C(O)=C2C(=O)[C@]3(O)C(O)=C(C(N)=O)C(=O)[C@@H](N(C)C)[C@@H]3[C@@H](O)[C@@H]21
TGI [1]: 10.5 µM
GI50 [2]: 2.53 µM
TGI [2]: 9.68 µM
GI50 [3]: 3.01 µM
TGI [3]: 12.6 µM
GI50 [4]: 3 µM
TGI [4]: 12.8 µM
GI50 [5]: 2.97 µM
TGI [5]: 12.7 µM
GI50 [6]: 3.29 µM
TGI [6]: 14.7 µM
GI50 [7]: 3.88 µM
TGI [7]: 14.8 µM
GI50 [8]: 2.96 µM
TGI [8]: 10.2 µM
GI50 [9]: 3.26 µM
TGI [9]: 12.5 µM
GI50 [10]: 3.02 µM
TGI [10]: 14.6 µM
GI50 [11]: 3.37 µM
TGI [11]: 11.5 µM
GI50 [12]: 3.19 µM
TGI [12]: 13.9 µM
GI50 [13]: 2.08 µM
TGI [13]: 8.67 µM
GI50 [14]: 3.13 µM
TGI [14]: 8.99 µM
GI50 [15]: 3.42 µM
TGI [15]: 27 µM
GI50 [16]: 3.12 µM
TGI [16]: 9.88 µM
GI50 [17]: 2.75 µM
TGI [17]: 10 µM
GI50 [18]: 3.16 µM
TGI [18]: 12.4 µM
GI50 [19]: 2.99 µM
TGI [19]: 11.9 µM
GI50 [20]: 3.72 µM
TGI [20]: 25.7 µM
GI50 [21]: 1.9 µM
TGI [21]: 4.12 µM
GI50 [22]: 3.15 µM
TGI [22]: 15.1 µM
GI50 [23]: 1.88 µM
TGI [23]: 3.63 µM
GI50 [24]: 4.14 µM
TGI [24]: 16.4 µM
GI50 [25]: 3.28 µM
TGI [25]: 34.8 µM
GI50 [26]: 6.18 µM
TGI [26]: 85.3 µM
GI50 [27]: 3.61 µM
TGI [27]: 12.5 µM
GI50 [28]: 1.98 µM
TGI [28]: 4.67 µM
